Assay [1] deals with T1, HIV-1 wild type reverse transcriptase (Human immunodeficiency virus type 1 group M subtype B, UniProt P03366).
T1 construct: HIV-1 wild type reverse transcriptase
Briefly: biochemical. The following applies: wild type RT; read-out: IC50 WT RT. The procedure: (§1) Utilizing the Reverse Transcriptase (RT) Assay described below, compounds were tested for their ability to inhibit the RNA-dependent DNA polymerase activity of HIV-1 RT. Certain specific compounds described in the Examples and in Tables 1-4, were so tested. The results of this testing appear in Table 5 as ranges of IC50 (nM) and EC50 (nM).
(§2) Reverse Transcriptase (RT) Assays

Assay [2] has as its target T2, HIV-1 RT double mutant K103N/Y181C (Human immunodeficiency virus type 1 group M subtype B, UniProt P03366, K702N/Y780C).
T2 construct: HIV-1 wild type reverse transcriptase as well as the clinically significant double mutant K103N/Y181C
The assay can be described thus: biochemical. On the procedure: as §1, §2

Where [3] appears, read: RT double mutant K103N/Y181C, read-out: IC50 K103N/Y181C.

Experimental findings from patent US6806265B2, “Non-nucleoside reverse transcriptase inhibitors” (priority 2002, dated 2004) are described below.

Read-outs that look alike come from different tables or passages of the source. Bounds are passed on as bounds.

On to `CCN1c2ncc(CCOc3ccc(-c4cc(Cl)c(C(=O)O)cc4F)cc3C)cc2C(=O)N(C)c2cccnc21` [Entry 1020], for which the IC50 in assay [1] and in assay [2] (setting [3]) was less than 50 nM throughout. For `CCN1c2ncc(CCOc3ccc(N(C)c4ccc(C(=O)O)cc4)cc3C)cc2C(=O)N(C)c2cccnc21` [Entry 3023], the IC50 in assay [1] is less than 50 nM; in assay [2] it was 50 to 100 nM. As to `CCN1c2ncc(CCOc3ccc(-c4ccc(C(=O)O)c(F)c4)cc3C)cc2C(=O)N(C)c2cccnc21` [Entry 1018], the IC50 in assay [1] and in assay [2] (setting [3]) was less than 50 nM throughout. In the case of `CCN1c2ncc(CCOc3ccc(-c4cc(C)nc(C)c4)cc3C)cc2C(=O)N(C)c2cccnc21` [Entry 1087], the IC50 in assay [1] and in assay [2] (setting [3]) was less than 50 nM each time. Consider `CCN1c2ncc(CCOc3ccc(-c4cccc(C(C)C(=O)O)c4)cc3C)cc2C(=O)N(C)c2cccnc21` (stereo not drawn) [Entry 1016], for which the figures for the IC50 in assay [1] and in assay [2] (setting [3]) were less than 50 nM and 50 to 100 nM, respectively. With `CCN1c2ncc(CCOc3ccc(-c4c[n+]([O-])ccc4C)cc3C)cc2C(=O)N(C)c2cccnc21` [Entry 1077, 11-Ethyl-5,11-dihydro-5-methyl-8-{2-[2-methyl-4-(4-methyl-1-oxido-3-pyridinyl)phenoxy]ethyl}-6H-dipyrido[3,2-b:2′,3′-e][1,4]diazepin-6-one], the IC50 in assay [1] and in assay [2] was less than 50 nM each time. As for `CCN1c2ncc(CCOc3ccc(-c4cc(C)cnc4N)cc3C)cc2C(=O)N(C)c2cccnc21` [Entry 1082], the IC50 in assay [1] and in assay [2] (setting [3]) was less than 50 nM each time. Turning to `CCN1c2ncc(CCOc3ccc(-c4ccc(N)nc4C)cc3C)cc2C(=O)N(C)c2cccnc21` [Entry 1081], the IC50 in assay [1] and in assay [2] (setting [3]) was less than 50 nM throughout.

As for `CCN1c2ncc(CCOc3cccc(-c4cccc(C(=O)O)c4)c3)cc2C(=O)N(C)c2cccnc21` [Entry 2002], the IC50 in assay [1] was more than 100 nM. `CCN1c2ncc(CCOc3ccc(-c4ccc(N)nc4)cc3C)cc2C(=O)N(C)c2cccnc21` [Entry 1079]: the IC50 in assay [1] and in assay [2] (setting [3]) was less than 50 nM throughout. As for `CCN1c2ncc(CCOc3ccc(-c4cc(F)c(O)c(F)c4)cc3C)cc2C(=O)N(C)c2cccnc21` [Entry 1103], the IC50 in assay [1] was less than 50 nM; in assay [2] (setting [3]), 50 to 100 nM.

As for `CCN1c2ncc(CCOc3ccc(-c4ccc(C(=O)O)o4)cc3)cc2C(=O)N(C)c2cccnc21` [Entry 1045], the IC50 in assay [1] was less than 50 nM; in assay [2] (setting [3]) it was 50 to 100 nM. For `CCN1c2ncc(CCOc3ccc(-c4ccc(C)[n+]([O-])c4C)cc3C)cc2C(=O)N(C)c2cccnc21` [Entry 1078], the IC50 in assay [1] and in assay [2] (setting [3]) was less than 50 nM throughout. For `CCN1c2ncc(CCOc3ccc(-c4cc(C)[n+]([O-])c(C)c4)cc3C)cc2C(=O)N(C)c2cccnc21` [Entry 1088], the IC50 in assay [1] and in assay [2] (setting [3]) was less than 50 nM in each case. In the case of `CCN1c2ncc(CCOc3ccc(N(CC(=O)O)C(C)=O)cc3C)cc2C(=O)N(C)c2cccnc21` [Entry 4002], the figures for the IC50 in assay [1] and in assay [2] were less than 50 nM and more than 100 nM, respectively. As to `CCN1c2ncc(CCOc3cccc(-c4ccc(C(=O)O)cc4)c3)cc2C(=O)N(C)c2cccnc21` [Entry 2001, 3′-[2-(11-Ethyl-6,11-dihydro-5-methyl-6-oxo-5H-dipyrido[3,2-b:2′,3′-e][1,4]diazepin-8-yl)ethoxy]-[1,1′-biphenyl]-4-carboxylic acid], in assay [1], the IC50 is more than 100 nM. As to `CCN1c2ncc(CCOc3ccc(-c4ccc(CC(=O)O)cc4C)cc3C)cc2C(=O)N(C)c2cccnc21` [Entry 1023], the IC50 in assay [2] (setting [3]) fell in the range of 50 to 100 nM. Consider `CCN1c2ncc(CCOc3ccc(C(=O)NN)cc3C)cc2C(=O)Nc2c(C)ccnc21` [Entry 4019], for which the IC50 in assay [1] is less than 50 nM; in assay [2] (setting [3]) it was 50 to 100 nM.

For the compound `CCN1c2ncc(CCOc3ccc(-c4ccc(C(=O)O)c(C)c4)cc3C)cc2C(=O)N(C)c2cccnc21` [Entry 1017], the IC50 in assay [1] and in assay [2] (setting [3]) was less than 50 nM in each case.

For the compound `CCN1c2ncc(CCOc3ccc(-c4occc4C(=O)O)cc3)cc2C(=O)N(C)c2cccnc21` [Entry 1050], the IC50 in assay [1] was more than 100 nM.
